Measurements reported in the NIST ThermoML archive (doi:10.1021/acs.jced.7b00148).
Numbers after ± are expanded uncertainties.

Settings: Liquid; for vapor or sublimation pressure: Closed cell (Static) method; for Critical pressure: Direct measurement; for Critical temperature: Visual observation in an unstirred cell

Question: For `C=C(C)CC` [2-methyl-1-butene], which “vapor or sublimation pressure” value (299.27 K) is on record?
Answer: 85 ± 2 kPa

Question: What about the “vapor or sublimation pressure” value (323.65 K) of the same compound?
Answer: 190 ± 3 kPa

Question: What about the “vapor or sublimation pressure” value (341.18 K) of the same compound?
Answer: 312 ± 3 kPa

Question: And the “vapor or sublimation pressure” value (353.77 K)?
Answer: 431 ± 4 kPa

Question: And the “vapor or sublimation pressure” value (366.06 K)?
Answer: 579 ± 5 kPa

Question: What about the “vapor or sublimation pressure” value (368.18 K) of the same compound?
Answer: 608 ± 5 kPa

Question: And the “vapor or sublimation pressure” value (375.63 K)?
Answer: 717 ± 5 kPa

Question: And the “vapor or sublimation pressure” value (386.21 K)?
Answer: 898 ± 6 kPa

Question: What about the “vapor or sublimation pressure” value (398.5 K) of the same compound?
Answer: 1149 ± 7 kPa

Question: And the “vapor or sublimation pressure” value (409.28 K)?
Answer: 1402 ± 8 kPa

Question: And the “vapor or sublimation pressure” value (419.65 K)?
Answer: 1695 ± 10 kPa

Question: And the “vapor or sublimation pressure” value (429.02 K)?
Answer: 1985 ± 11 kPa

Question: What about the “vapor or sublimation pressure” value (431.24 K) of the same compound?
Answer: 2065 ± 11 kPa

Question: And the “vapor or sublimation pressure” value (438.39 K)?
Answer: 2316 ± 13 kPa

Question: And the “vapor or sublimation pressure” value (448.46 K)?
Answer: 2723 ± 14 kPa

Question: What about the “vapor or sublimation pressure” value (457.43 K) of the same compound?
Answer: 3118 ± 16 kPa

Question: What about the “vapor or sublimation pressure” value (460.55 K) of the same compound?
Answer: 3271 ± 17 kPa

Question: What about the “vapor or sublimation pressure” value (463.37 K) of the same compound?
Answer: 3409 ± 17 kPa

Question: And the “vapor or sublimation pressure” value (465.49 K)?
Answer: 3523 ± 18 kPa

Question: And the “vapor or sublimation pressure” value (467.9 K)?
Answer: 3652 ± 19 kPa

Question: And the Critical pressure?
Answer: 3652 ± 26 kPa

Question: And the Critical temperature?
Answer: 467.9 ± 0.24 K

Question: For `CC=C(C)C` [2-methyl-2-butene], which “vapor or sublimation pressure” value (307.63 K) is on record?
Answer: 87 ± 2 kPa

Question: What about the “vapor or sublimation pressure” value (325.06 K) of the same compound?
Answer: 157 ± 3 kPa

Question: What about the “vapor or sublimation pressure” value (340.98 K) of the same compound?
Answer: 249 ± 3 kPa

Question: What about the “vapor or sublimation pressure” value (350.14 K) of the same compound?
Answer: 321 ± 3 kPa

Question: And the “vapor or sublimation pressure” value (364.85 K)?
Answer: 463 ± 4 kPa

Question: And the “vapor or sublimation pressure” value (372.91 K)?
Answer: 560 ± 5 kPa

Question: And the “vapor or sublimation pressure” value (380.97 K)?
Answer: 673 ± 5 kPa

Question: What about the “vapor or sublimation pressure” value (389.83 K) of the same compound?
Answer: 811 ± 6 kPa

Question: What about the “vapor or sublimation pressure” value (397.89 K) of the same compound?
Answer: 954 ± 6 kPa

Question: And the “vapor or sublimation pressure” value (408.17 K)?
Answer: 1167 ± 7 kPa

Question: What about the “vapor or sublimation pressure” value (422.67 K) of the same compound?
Answer: 1524 ± 9 kPa

Question: What about the “vapor or sublimation pressure” value (430.83 K) of the same compound?
Answer: 1758 ± 10 kPa

Question: And the “vapor or sublimation pressure” value (439.09 K)?
Answer: 2021 ± 11 kPa

Question: What about the “vapor or sublimation pressure” value (448.36 K) of the same compound?
Answer: 2349 ± 13 kPa

Question: What about the “vapor or sublimation pressure” value (453.3 K) of the same compound?
Answer: 2541 ± 14 kPa

Question: What about the “vapor or sublimation pressure” value (454.71 K) of the same compound?
Answer: 2600 ± 14 kPa

Question: And the “vapor or sublimation pressure” value (461.46 K)?
Answer: 2884 ± 15 kPa

Question: And the “vapor or sublimation pressure” value (464.08 K)?
Answer: 3006 ± 16 kPa

Question: What about the “vapor or sublimation pressure” value (470.72 K) of the same compound?
Answer: 3327 ± 17 kPa

Question: And the “vapor or sublimation pressure” value (471.73 K)?
Answer: 3377 ± 17 kPa

Question: And the “vapor or sublimation pressure” value (473.04 K)?
Answer: 3442 ± 18 kPa

Question: What about the “vapor or sublimation pressure” value (475.16 K) of the same compound?
Answer: 3556 ± 18 kPa

Question: What about the “vapor or sublimation pressure” value (477.47 K) of the same compound?
Answer: 3686 ± 19 kPa

Question: What about the Critical pressure of the same compound?
Answer: 3686 ± 26 kPa

Question: What about the Critical temperature of the same compound?
Answer: 477.47 ± 0.24 K

Question: Which results are given for `C=CCCC` [1-pentene]?
Answer: vapor or sublimation pressure (297.86 K): 84 ± 2 kPa; vapor or sublimation pressure (327.08 K): 216 ± 3 kPa; vapor or sublimation pressure (336.14 K): 279 ± 3 kPa; vapor or sublimation pressure (346.92 K): 372 ± 4 kPa; vapor or sublimation pressure (356.19 K): 468 ± 4 kPa; vapor or sublimation pressure (356.89 K): 474 ± 4 kPa; vapor or sublimation pressure (366.77 K): 600 ± 5 kPa; vapor or sublimation pressure (377.34 K): 757 ± 5 kPa; vapor or sublimation pressure (387.42 K): 933 ± 6 kPa; vapor or sublimation pressure (394.67 K): 1085 ± 7 kPa; vapor or sublimation pressure (399.61 K): 1193 ± 7 kPa; vapor or sublimation pressure (403.03 K): 1269 ± 8 kPa; vapor or sublimation pressure (411.19 K): 1472 ± 9 kPa; vapor or sublimation pressure (420.96 K): 1752 ± 10 kPa; vapor or sublimation pressure (426.1 K): 1915 ± 11 kPa; vapor or sublimation pressure (436.17 K): 2255 ± 12 kPa; vapor or sublimation pressure (439.5 K): 2373 ± 13 kPa; vapor or sublimation pressure (445.74 K): 2622 ± 14 kPa; vapor or sublimation pressure (452.59 K): 2902 ± 15 kPa; vapor or sublimation pressure (456.52 K): 3081 ± 16 kPa; vapor or sublimation pressure (457.93 K): 3152 ± 16 kPa; vapor or sublimation pressure (460.95 K): 3294 ± 17 kPa; vapor or sublimation pressure (462.87 K): 3389 ± 17 kPa; vapor or sublimation pressure (463.77 K): 3443 ± 18 kPa; vapor or sublimation pressure (466.59 K): 3585 ± 18 kPa; Critical pressure: 3585 ± 26 kPa; Critical temperature: 466.59 ± 0.24 K

Question: Which “vapor or sublimation pressure” value (302.9 K) does the source give for `C=CC(C)C` [3-methyl-1-butene] here?
Answer: 140 ± 3 kPa

Question: What about the “vapor or sublimation pressure” value (323.75 K) of the same compound?
Answer: 264 ± 3 kPa

Question: What about the “vapor or sublimation pressure” value (336.44 K) of the same compound?
Answer: 374 ± 4 kPa

Question: What about the “vapor or sublimation pressure” value (350.65 K) of the same compound?
Answer: 533 ± 4 kPa

Question: And the “vapor or sublimation pressure” value (358.2 K)?
Answer: 635 ± 5 kPa

Question: And the “vapor or sublimation pressure” value (371.6 K)?
Answer: 855 ± 6 kPa

Question: What about the “vapor or sublimation pressure” value (382.88 K) of the same compound?
Answer: 1073 ± 7 kPa

Question: And the “vapor or sublimation pressure” value (390.84 K)?
Answer: 1255 ± 8 kPa

Question: And the “vapor or sublimation pressure” value (399 K)?
Answer: 1458 ± 9 kPa

Question: And the “vapor or sublimation pressure” value (405.25 K)?
Answer: 1632 ± 9 kPa

Question: And the “vapor or sublimation pressure” value (413.2 K)?
Answer: 1874 ± 11 kPa

Question: What about the “vapor or sublimation pressure” value (420.56 K) of the same compound?
Answer: 2113 ± 12 kPa

Question: And the “vapor or sublimation pressure” value (431.03 K)?
Answer: 2509 ± 13 kPa

Question: And the “vapor or sublimation pressure” value (439.9 K)?
Answer: 2885 ± 15 kPa

Question: What about the “vapor or sublimation pressure” value (445.14 K) of the same compound?
Answer: 3138 ± 16 kPa

Question: What about the “vapor or sublimation pressure” value (447.76 K) of the same compound?
Answer: 3260 ± 17 kPa

Question: What about the “vapor or sublimation pressure” value (450.48 K) of the same compound?
Answer: 3407 ± 18 kPa

Question: What about the “vapor or sublimation pressure” value (451.38 K) of the same compound?
Answer: 3463 ± 18 kPa

Question: What about the Critical pressure of the same compound?
Answer: 3463 ± 26 kPa

Question: And the Critical temperature?
Answer: 451.38 ± 0.24 K
